Results published in patent EP3389689B1, “ACTIVE INGREDIENTS FOR TOPICAL APPLICATION” (priority 2015, dated 2021).

How the values were obtained:
PLOD3 = test: Gene-expression analysis (PCR) in normal human dermal fibroblasts; type: cell-based; conditions: peptide 0.01% in growth medium, timepoint 24hrs
Procedure: (§1) Normal human dermal fibroblasts at passage 7 from a donor were cultured in DMEM with L-glutamine 2mM, Penicillin 50U/ml-Streptomycin 50ug/ml and 10% FCS in a 5% CO2 atmosphere at 37°C. After equilibration of cell in 1% FCS for 24hrs the respective peptides H-(beta-Ala)-Pro-Dab-NH-benzyl [CAS 823202-99-9], respectively N-palmitoyl-Gly-His-Lys [147732-56-7] / N-palmitoyl-Gly-Gln-Pro-Arg [221227-05-0] (2:1) diluted in growth medium to a concentration of 0.01% were added and the cells were incubated for an additional 24hrs. At the end of incubation cells were washed in PBS and immediately frozen at -80°C. Total RNA was extracted using NucleoSpin RNA Plus kit (Macherey-Nagel) according to supplier's instructions. cDNA was synthesized by reverse transcription of total RNA using Transcriptor Reverse Transcriptase (Roche). PCR was performed on a LightCycler device (Roche Molecular Systems Inc.) according to manufacturer's instructions. Raw data were analyzed using Microsoft Excel.

ADAMTS2 = test: as above; type: cell-based; conditions: peptide 0.01% in growth medium, timepoint 24hrs
Procedure: as §1

LOXL2 = test: as above; type: cell-based; conditions: peptide 0.01% in growth medium, timepoint 24hrs
Procedure: as §1

PCOLCE = test: as above; type: cell-based; conditions: peptide 0.01% in growth medium, timepoint 24hrs
Procedure: as §1

[1] = test system: genes involved in collagen fiber maturation; test: Gene-expression analysis, summary statement in words; type: cell-based, human; conditions: result in words; fibroblasts, 0.01%, 24hrs
Procedure: as §1

## N-palmitoyl-Gly-His-Lys [147732-56-7] / N-palmitoyl-Gly-Gln-Pro-Arg [221227-05-0] (2:1)
PLOD3
  gene expression PLOD3: 163%
ADAMTS2
  gene expression ADAMTS2: 105%
LOXL2
  gene expression LOXL2: 292%
PCOLCE
  gene expression PCOLCE: 94%
[1]
  up-regulation of genes involved in collagen fiber maturation: only up-regulates LOXL2 and much less PLOD3
